US10082506B2 (Wisconsin Alumni Research Foundation, priority 2014, dated 2018)
Like-named read-outs stand apart in the source and are kept apart here. One block for each molecule: values may come before it.

Assays:
hIntL-1 [1] = biological target: T1, hIntL-1 (Homo sapiens, UniProt Q8WWA0); experiment: hIntL-1 surface plasmon resonance on immobilized carbohydrates; format: binding; set-up: made in house; host or cells: HEK 293T (transient transfection, suspension); conditions: concentrations up to 6-fold higher than the β-Galf KD
T1 sequence (Q8WWA0 19-313): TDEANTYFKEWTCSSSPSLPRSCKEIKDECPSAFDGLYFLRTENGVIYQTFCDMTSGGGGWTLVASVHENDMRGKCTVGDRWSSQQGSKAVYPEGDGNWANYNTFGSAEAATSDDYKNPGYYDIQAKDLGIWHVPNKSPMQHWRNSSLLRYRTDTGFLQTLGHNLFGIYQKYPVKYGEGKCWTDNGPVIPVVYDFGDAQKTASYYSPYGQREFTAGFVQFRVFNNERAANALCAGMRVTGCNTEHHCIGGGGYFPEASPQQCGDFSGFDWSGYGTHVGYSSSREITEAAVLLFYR
Experimental: hIntL-1 Surface Plasmon Resonance (SPR). All hIntL-1 SPR was performed on a ProteOn XPR36 (Bio-Rad) at the University of Wisconsin-Madison Department of Biochemistry Biophysics Instrumentation Facility (BIF). To measure hIntL-1 binding, ProteOn NLC sensor chips (Bio-Rad) (NeutrAvidin coated chips) were used to capture carbohydrate-biotin ligand. All experiments presented here were conducted at surface saturated levels of ligand, ˜200 RU. In all experiments, captured biotin served as a control. Samples containing purified hIntL-1 were prepared by serial dilution into hIntL-1 SPR running buffer (20 mM HEPES (7.4) 150 mM NaCl, 1 mM CaCl2, and 0.005% tween-20). Surfaces were regenerated with short injections of 10 mM HCl. All data was interspot corrected and processed using the Bio-Rad ProteOn software package.

hIntL-1 [2] = biological target: T1, hIntL-1; experiment: hIntL-1 on CFG mammalian glycan array v5.1; format: binding; set-up: made in house; host or cells: HEK 293T (transient transfection, suspension); conditions: hIntL-1 50 and 200 μg/ml
[3] = test system: UDP-galactopyranose mutase (UGM); conditions: UGM from the species listed; cited from earlier work
Strep-hIntL-1 = biological target: T2, Strep-hIntL-1 (Homo sapiens, UniProt Q8WWA0); experiment: Strep-hIntL-1 binding to S. pneumoniae serotypes; conditions: detected with anti-Strep-tag:Oyster 642 nm antibody
T2 construct: made in house; host or cells: HEK 293T (transient transfection)
T2 sequence (Q8WWA0 19-313): as above

hIntL-1 [4] = biological target: T1, hIntL-1; experiment: hIntL-1 carbohydrate binding ELISA-like assay (immobilized biotinylated carbohydrates); set-up: made in house; host or cells: HEK 293T (transient transfection, suspension); conditions: for hIntL-1 binding to immobilized carbohydrate in ELISA: immobilized carbohydrate-biotin ligand
Experimental: hIntL-1 Carbohydrate Binding ELISA-like Assay. To fabricate carbohydrate-displaying surfaces, 0.5 μg of streptavidin (Prozyme, cat. no. SA20) was adsorbed onto a Maxisorp (Nunc) flat bottom 96 well plate in PBS. Wells were washed with PBS and then coated with 5 μM of carbohydrate-biotin ligand in PBS for 1 hour at 22° C. Wells were blocked with bovine serum albumin (BSA) in ELISA buffer (20 mM HEPES (7.4) 150 mM NaCl, 10 mM CaCl2, and 0.1% tween-20). Samples containing hIntL-1 were prepared by serial dilution into ELISA buffer+0.1% BSA and added to wells for 2 hours at 22° C. Wells were washed four times with ELISA buffer. Bound hIntL-1 was detected using 0.75 μg/mL of a sheep IgG hIntL-1 antibody (R&D Systems, cat. no. AF4254) in ELISA buffer+0.1% BSA for 2 hours at 22° C. Wells were washed with ELISA buffer. A donkey anti-sheep IgG horseradish peroxidase (HRP) conjugate (Jackson ImmunoResearch Laboratories) was added at a 1:5,000 dilution in ELISA buffer+0.1% BSA for 1 hour at 22° C. Wells were washed and hIntL-1 was detected colorimetrically with addition of 1-Step Ultra TMB-ELISA (Pierce). Once sufficient signal was achieved (typically <2 min.), the reaction was quenched with addition of equal volume 2 M H2SO4. Plates were read at 450 nm on an EL×800 plate reader (Bio-Tek). […] Data were analyzed on Prism6 (GraphPad). Data were fit to the one site-specific binding equation.

hIntL-1 [5] = biological target: T1, hIntL-1; conditions: reported by Tsuji et al., 2001; read-out: apparent KD / apparent affinity for hIntL-1; cited from earlier work
Strep-mIntL-1 = Strep-mIntL-1 (Mus musculus, UniProt O88310); conditions: SPR, referenced to biotin channel
Chain of Strep-mIntL-1 (O88310 19-298): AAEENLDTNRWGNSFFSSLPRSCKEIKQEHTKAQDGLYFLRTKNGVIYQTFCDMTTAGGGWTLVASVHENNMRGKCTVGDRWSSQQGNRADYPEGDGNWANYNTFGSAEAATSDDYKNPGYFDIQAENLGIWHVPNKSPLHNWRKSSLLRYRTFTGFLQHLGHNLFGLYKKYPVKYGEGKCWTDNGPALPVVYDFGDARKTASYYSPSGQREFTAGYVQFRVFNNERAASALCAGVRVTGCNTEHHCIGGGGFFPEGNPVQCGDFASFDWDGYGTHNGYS

hIntL-1 binding to immobilized carbohydrate in SPR (hIntL-1 [1]): small response
SMILES: OC[C@H]1O[C@@H](O)[C@H](O)[C@@H](O)[C@H]1O [β-Galp, β-galactopyranose]

SMILES: CC(=O)N[C@H]1[C@H](OC[C@H]2OC(O)[C@H](NC(C)=O)[C@@H](O)[C@H]2O)O[C@H](CO)[C@H](O)[C@@H]1O (stereo partly drawn) [GalNAcβ1-6GalNAc]
hIntL-1 binding signal on CFG mammalian glycan array (hIntL-1 [2]): highest signal

SMILES: O=C(O)C(Cc1ccc(I)cc1)Nc1nc(-c2ccc(Cl)c(Cl)c2)cs1 (stereo not drawn) [3-(4-iodophenyl)-2-[4-(3,4-dichlorophenyl)-thiazol-2-ylamino]-propionic acid]
inhibition of UGM [3]: active against UGM

SMILES: OCC(O)CO [glycerol]
effect of additive on hIntL-1 binding to S. pneumoniae (Strep-hIntL-1): abrogate binding

SMILES: CC(=O)N[C@H]1[C@H]([C@H](O)[C@H](O)CO)OC(O)(C(=O)O)C[C@@H]1O (stereo partly drawn) [Neu5Ac, N-acetyl-neuraminic acid]
hIntL-1 binding signal on CFG mammalian glycan array (hIntL-1 [2]): lack of affinity
hIntL-1 binding to immobilized carbohydrate in ELISA (hIntL-1 [4]): lack of affinity
hIntL-1 binding to immobilized carbohydrate in ELISA (hIntL-1 [4]; listed as α-Neu5Ac): does not bind

SMILES: Cc1c(C(=O)c2ccc(Cl)cc2)c(O)nn1-c1ccc(Cl)cc1 [4-chlorophenyl)-[1-(4-chlorophenyl)-3-hydroxy-5-methyl-1H-pyrazol-4-yl]-methanone]
inhibition of UGM [3]: inhibits UGM

SMILES: CC(=O)N[C@H]1C(O)O[C@H](CO)[C@@H](O[C@@H]2O[C@@H]([C@H](O)CO)[C@H](O)[C@H]2O)[C@@H]1O (stereo partly drawn) [2-acetamido-2-deoxy-4-O-beta-D-galactofuranosyl-D-glucopyranose]
Kd (hIntL-1 [5]): 9 mM

SMILES: O=C[C@H](O)[C@H](O)[C@H](O)CO [D-ribose]
Kd (hIntL-1 [5]): < 5 mM

SMILES: O=C(CCCCC1SCC2NC(=O)NC21)NCCOCCOCCOCCOCc1cn(CCCCCCCCCC=CCOC2OC(C(O)CO)C(O)C2O)nn1 (stereo not drawn)
Kd (hIntL-1 [4]; disulfide-linked trimer, immobilized biotinylated carbohydrate, read-out: apparent avidity (apparent Kd) of trimeric hIntL-1 for immobilized ligand): 85 ± 14 nM
hIntL-1 binding to immobilized carbohydrate in SPR (hIntL-1 [1]): robust binding

SMILES: O=C(O)CN(CCN(CC(=O)O)CC(=O)O)CC(=O)O [EDTA]
effect of additive on hIntL-1 binding to β-Galf (hIntL-1 [4]; hIntL-1 conditioned HEK culture media, 25 mM EDTA): completely abolished binding
effect of additive on mIntL-1 carbohydrate binding (Strep-mIntL-1): prevents carbohydrate binding
effect of additive on hIntL-1 binding to S. pneumoniae (Strep-hIntL-1): abrogate binding
